Test results reported in paper PMC3273640 (Journal of Molecular Biology, 2011).

Experiment: CD measurements of folding in water/TFE mixtures
Format: physicochemical
Conditions: CD in water/TFE mixtures (>= 2 M TFE), fit with Eq. S11

folding free energy [kcal/mol] | Substance
4.6 ± 0.2 | Ac-CGWWLALALALALALALALALWWA-NH2 [WALP23]
4.8 ± 0.2 | Ac-CGWWLALALALALALALALALALALWWA-NH2 [WALP27]
